Test [1] addresses T1, Acyl-CoA:cholesterol acyltransferase (Oryctolagus cuniculus, UniProt Q95214).
T1 sequence (Q95214 whole entry): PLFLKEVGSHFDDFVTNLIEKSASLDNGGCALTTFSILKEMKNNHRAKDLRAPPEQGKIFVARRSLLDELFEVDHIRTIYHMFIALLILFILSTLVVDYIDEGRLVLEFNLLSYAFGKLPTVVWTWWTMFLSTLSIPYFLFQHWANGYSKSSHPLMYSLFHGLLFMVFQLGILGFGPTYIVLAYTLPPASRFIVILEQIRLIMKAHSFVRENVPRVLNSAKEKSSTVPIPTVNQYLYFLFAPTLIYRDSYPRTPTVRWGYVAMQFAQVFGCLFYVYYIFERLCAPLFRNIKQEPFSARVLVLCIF
Put plainly: Compound was tested for inhibitory activity against ACAT from rabbit liver.

Test [2] has as its target T1, Acyl-CoA:cholesterol acyltransferase. Nature of the test: Compound was tested for inhibitory activity against ACAT from rabbit adrenal gland. It is filed as tissue-based.
The target in test [3] is O-acyltransferase (Oryctolagus cuniculus, UniProt G1SFD9). Put plainly: Compound was tested for inhibitory activity against ACAT from rabbit intestine. Format: tissue-based.

The record followed here is ChEMBL document CHEMBL1131799, “Polyunsaturated fatty acid anilides as inhibitors of acyl-coA: cholesterol acyltransferase (ACAT)” (Bioorg Med Chem Lett, 1999).

O-acyltransferase, sequence (G1SFD9 1-524): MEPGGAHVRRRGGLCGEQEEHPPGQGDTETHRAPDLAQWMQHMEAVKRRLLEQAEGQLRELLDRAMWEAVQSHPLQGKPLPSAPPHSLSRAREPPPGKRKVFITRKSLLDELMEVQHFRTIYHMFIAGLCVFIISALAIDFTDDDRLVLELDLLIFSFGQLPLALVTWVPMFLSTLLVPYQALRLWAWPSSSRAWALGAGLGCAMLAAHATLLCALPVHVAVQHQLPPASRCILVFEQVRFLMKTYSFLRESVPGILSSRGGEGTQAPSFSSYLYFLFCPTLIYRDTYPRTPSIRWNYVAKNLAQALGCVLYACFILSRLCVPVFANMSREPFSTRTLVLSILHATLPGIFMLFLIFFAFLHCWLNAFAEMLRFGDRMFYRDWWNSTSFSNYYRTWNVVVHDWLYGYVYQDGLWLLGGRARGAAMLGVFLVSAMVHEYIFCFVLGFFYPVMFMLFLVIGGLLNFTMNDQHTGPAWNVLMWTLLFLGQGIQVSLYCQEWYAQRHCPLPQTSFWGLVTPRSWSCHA

The IC50 is the midpoint of a concentration-inhibition curve. As to `CCCCCCCCCCC(C)(C)C(=O)Nc1c(OC)cc(OC)cc1OC` [CL-976], the results for the IC50 in test [1] and in test [2] were 0.191 µM and 1.95 µM, respectively.
Take `CCCCCCCCCCCCCC(=S)Nc1c(C(C)C)cccc1C(C)C`: the figures for the IC50 in test [3], in test [1] and in test [2] were 0.006 µM, 0.015 µM and 0.554 µM, respectively.
For `C/C=C/C/C=C/C/C=C/C/C=C/C/C=C/C/C=C/CCCC(=O)Nc1c(C(C)C)cccc1C(C)C` the same measures were 0.045 µM, 0.056 µM and 0.228 µM.
